One assay has as its target T1, PD-1/PD-L1 (Homo sapiens, UniProt Q9NZQ7).
T1 construct: Recombinant human PD-L1 protein (19-238) with a Histag at the C-terminus; purchased AcroBiosystems PD1-H5229 (PD-L1); PD1-H5257 (PD-1)
Description: PD-1/PD-L1 Homogeneous Time-Resolved Fluorescence (HTRF) Binding Assay. The note with it: PD-1/PD-L1 HTRF activity; 3 nM PD1, 10 nM PD-L1, 25° C. The gist of the method:
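Human PD-L1 (19-238, His-tag) 10 nM and PD-1 (25-167, Fc-tag) 3 nM preincubated 40 min with inhibitor in PBS pH 7.4, 0.05% Tween-20, 0.1% BSA, 1% DMSO, 25 °C. Eu-anti-human IgG (1 nM) and anti-His-APC (20 nM) added, 60 min, 665/620 nm ratio; IC50 from percent control activity versus log concentration.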
(TR-FRET usually uses a lanthanide donor and a delayed reading to cut background.)

For assay [1], the target named is T2, extracellular domains of PD-L1 (Homo sapiens, UniProt Q9NZQ7).
T2 construct: specifically dimerize the extracellular domains of PD-L1
Description: PD-L1 Dimerization. It counts as biochemical. The note with it: PD-L1-Eu and PD-L1-A2, ratio 665 nm/615 nm. As for the experimental part:
Example 108. PD-L1 Dimerization
Compounds were tested in biochemical protein-protein interaction assays to determine if they can specifically dimerize the extracellular domains of PD-L1. • (1) Diluted cpd 1:3 in succession in DMSO for each column for 10 samples • (2) Transferred 0.2 μL cpds solution in each row to 384 assay plate using Echo, each column containing 2 replicates • (3) Added 20 μL prepared mixture include PD-L1-Eu and PD-L1-A2 solution to assay plate, centrifuged at 1000 rpm for 1 min. • (4) Incubated at 25° C. for […]. • (5) Read fluorescence signal on Envision 2104 plate reader. • (6) Read the Ratio (665 nm/615 nm) signal on Envision. • (7) Analyzed the raw data using the equation (V. Data analysis)

The subject of assay [2] is Hep3B-OS8-hPDL1 and T cells. Description: Hep3B-OS8-hPDL1 and T Cells Co-Culture Assay (IFN-γ by ELISA). The class given is cell-based. The note with it: T-cell, Hep3B-OS8-hPDL1 and human CD3+ T cells, 72 hours, read-out: Tumor and T Cell EC50. As to the method: Example 110. Hep3B-OS8-hPDL1 and T Cells Co-Culture Assay
1. Hep3B-OS8-hPDL1 cells were cultured in 1640 medium supplemented with 10% fetal bovine serum, 1% penicillin and streptomycin, in which 100 μg/mL G418 and Hygromycin B were also added.
2. Hep3B-OS8-hPDL1 cells were harvested and treated with 10 μg/mL mitomycin C at 37° C. for 1.5 h, and the cells were then washed thoroughly with PBS for four times.
3. Cells were re-suspended with RPMI 1640 medium containing 10% FBS and the cell density was adjusted to 5×10^5 cells/mL.
4. Cells were seeded into 96-well flat bottom plate (2.5×10^4 cells/50 μL/well).
b. CD3+ T cells isolation (30 mL blood)
5. The human blood sample from an individual donor was diluted by the same volume of sterile PBS, for instance add 25 mL sterile PBS into 25 mL fresh whole blood and mix sufficiently by gentle shake.
6. Transferred 15 mL Lymphoprep medium into a new 50 mL centrifuge tube.
7. Added the diluted blood sample as soft as possible onto the surface of the Ficoll medium to make sure there is a clear dividing line between the two liquids, and the volume ratio between Ficoll and diluted blood (30 mL) is 1:2.
8. Moved the tube gently to centrifuge, at 1000×g, 25 min, 20° C., with the acceleration (5) and Min deceleration (0) settings during the centrifugation.
9. Four interfaces in all could be observed after the centrifugation, which are layers of plasma, mononuclear cells, the Ficoll medium and RBCs from top to bottom, and move the tube as gently as possible so as keep the four interfaces separated. Absorbed and transferred the second layer of mononuclear cells into another new sterile centrifuge tube carefully, and absorbed certain volume of plasma instead of the Ficoll medium if inevitable.
10. Added sterile PBS of the three times the volume of PBMCs in the tube with PBMC.
11. Washed the cells twice with 5-10 mL PBS before cell counting with cytometer. Centrifuge at 350×g, 10 min, 20° C. With the acceleration (5) and deceleration (5) settings during the centrifugation.
12. Resuspended the cells with recommended medium and adjust the density of the PBMCs to the final concentration of 5×10^7 cells/mL.
13. Isolated CD3+ T cells with EasySep™ Human T Cell Isolation Kit (STEMCELL Technologies #17951), and the cells were seeded into 96-well flat bottom plate (5×10^4 cells/100 μL/well). c. Compounds solutions preparation
14. Prepared the Compounds dilutions in RPMI 1640 medium with 10% FBS according to the Layout. 15. Added compounds into each well in a volume of 50 μL. {3 compounds (GLC01-258, GLC01-269, GLC01-465) in 7 concentrations (0.03, 0.1, 0.3, 1, 3, 10 and 30 μM) and 6 compounds (GLC01-411, GLC01-292, GLC01-445, GLC01-475, GLC01-470 and GLC01-468) in the same concentration (1 μM)}.
16. Keytruda was included as positive control, the concentration was 5 μg/mL. 17. Incubated for 72 hours at 37° C., 5% CO2.
18. Collected supernatant by centrifugation and measure IFN-γ by ELISA.

Molecules are shown by their SMILES. Counter-ions that a name gives are not always drawn.

T2 sequence (Q9NZQ7 19-238 limits assumed): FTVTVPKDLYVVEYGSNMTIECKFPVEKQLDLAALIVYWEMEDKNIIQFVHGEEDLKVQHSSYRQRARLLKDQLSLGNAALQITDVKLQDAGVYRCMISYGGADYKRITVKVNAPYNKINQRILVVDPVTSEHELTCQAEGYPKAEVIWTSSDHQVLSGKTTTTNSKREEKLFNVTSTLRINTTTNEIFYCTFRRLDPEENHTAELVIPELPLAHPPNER
T1 sequence (Q9NZQ7 19-238): as the sequence (Q9NZQ7 19-238 limits assumed) above

On to `Cc1cn2nc(-c3cccc(-c4cccc(-c5cc6c(=O)n(C[C@@H]7CCCN7)c(C)cn6n5)c4Cl)c3Cl)cc2c(=O)n1C[C@@H]1CCCN1` [Compound 36, 2,2′-(2,2′-dichloro-[1,1′-biphenyl]-3,3′-diyl)bis(6-methyl-5-(((S)-pyrrolidin-2-yl)methyl)pyrazolo[1,5-a]pyrazin-4(5H)-one) dihydrochloride], for which the IC50 on PD-1/PD-L1 is < 10 nM. Besides, the EC50 in assay [1] and in assay [2] was < 50 nM throughout.

Molecule `Cn1c(CN2CC[C@H](C(=O)O)C2)cn2cc(-c3cccc(-c4cccc(-c5cc6c(=O)n(C)c(CN7CC[C@H](C(=O)O)C7)cn6c5)c4Cl)c3Cl)cc2c1=O` [Compound 43, (3S,3'S)-1,1′-(((2,2′-dichloro-[1,1′-biphenyl]-3,3′-diyl)bis(2-methyl-1-oxo-1,2-dihydropyrrolo[1,2-a]pyrazine-7,3-diyl))bis(methylene))bis(pyrrolidine-3-carboxylic acid)] came in with an IC50 on PD-1/PD-L1 of 10 to 100 nM. In addition, the EC50 in assay [1] fell in the range of 50 to 100 nM.

Regarding `Cc1cn2nc(-c3cccc(-c4cccc(-c5cc6c(=O)n(CCN7CC[C@H](C(=O)O)C7)c(C)cn6n5)c4Cl)c3Cl)cc2c(=O)n1CCN1CC[C@H](C(=O)O)C1` [Compound 47, (3S,3'S)-1,1′-(((2,2′-dichloro-[1,1′-biphenyl]-3,3′-diyl)bis(6-methyl-4-oxopyrazolo[1,5-a]pyrazine-2,5(4H)-diyl))bis(ethane-2,1-diyl))bis(pyrrolidine-3-carboxylic acid)], at PD-1/PD-L1, the IC50 was < 10 nM. The figures for the EC50 in assay [1] and in assay [2] were 50 to 100 nM and ≥ 100 nM, respectively.

For the molecule `Cc1cn2cc(-c3cccc(-c4cccc(-c5cc6c(=O)n(CCNC[C@@H]7CCC(=O)N7)c(C)cn6c5)c4Cl)c3Cl)cc2c(=O)n1CCNC[C@@H]1CCC(=O)N1` [Compound 49, 7,7′-(2,2′-dichloro-[1,1′-biphenyl]-3,3′-diyl)bis(3-methyl-2-(2-((((S)-5-oxopyrrolidin-2-yl)methyl)amino)ethyl)pyrrolo[1,2-a]pyrazin-1(2H)-one)], the concentration for half-maximal inhibition (IC50) at PD-1/PD-L1 is < 10 nM. Further, the half-maximal effective concentration (EC50) in assay [1] is ≥ 100 nM.

On to `Cc1cn2cc(-c3cccc(-c4cccc(-c5cc6c(=O)n(CCNCCO)c(C)cn6c5)c4Cl)c3Cl)cc2c(=O)n1CCNCCO` [Compound 51, 7,7′-(2,2′-dichloro-[1,1′-biphenyl]-3,3′-diyl)bis(2-(2-((2-hydroxyethyl)amino)ethyl)-3-methylpyrrolo[1,2-a]pyrazin-1(2H)-one)], for which, on PD-1/PD-L1, the IC50 is < 10 nM. Moreover, the EC50 in assay [1] and in assay [2] was 50 to 100 nM in each case.

`Cc1cn2cc(-c3cccc(-c4cccc(-c5cc6c(=O)n(CCN7CC[C@H](C(=O)O)C7)c(C)cn6c5)c4Cl)c3Cl)cc2c(=O)n1CCN1CC[C@H](C(=O)O)C1` [Compound 53, (3S,3'S)-1,1′-(((2,2′-dichloro-[1,1′-biphenyl]-3,3′-diyl)bis(3-methyl-1-oxopyrrolo[1,2-a]pyrazine-7,2(1H)-diyl))bis(ethane-2,1-diyl))bis(pyrrolidine-3-carboxylic acid)]: at PD-1/PD-L1, the 50% inhibitory concentration (IC50) was < 10 nM. For the same molecule, the concentration for a half-maximal effect (EC50) in assay [2] was ≥ 100 nM.

The molecule `Cn1c(CN[C@@H](CO)C(=O)O)cn2nc(-c3cccc(-c4cccc(-c5cc6c(=O)n(C)c(CN[C@@H](CO)C(=O)O)cn6n5)c4Cl)c3Cl)cc2c1=O` [Compound 80, (2S,2'S)-2,2′-((((2,2′-dichloro-[1,1′-biphenyl]-3,3′-diyl)bis(5-methyl-4-oxo-4,5-dihydropyrazolo[1,5-a]pyrazine-2,6-diyl))bis(methylene))bis(azanediyl))bis(3-hydroxypropanoic acid)] yielded an IC50 at PD-1/PD-L1 of 10 to 100 nM. Moreover, the EC50 in assay [1] is ≥ 100 nM.

On PD-1/PD-L1, `Cc1cn2nc(-c3cccc(-c4cccc(-c5cc6c(=O)n(CCN7CC[C@H](O)[C@H]7C(=O)O)c(C)cn6n5)c4Cl)c3Cl)cc2c(=O)n1CCN1CC[C@H](O)[C@H]1C(=O)O` [Compound 89, (2S,2'S,3S,3'S)-1,1′-(((2,2′-dichloro-[1,1′-biphenyl]-3,3′-diyl)bis(6-methyl-4-oxopyrazolo[1,5-a]pyrazine-2,5(4H)-diyl))bis(ethane-2,1-diyl))bis(3-hydroxypyrrolidine-2-carboxylic acid)] returned an IC50 of 10 to 100 nM. Moreover, in assay [2], the EC50 is < 50 nM.

As for `Cc1cn2nc(-c3cccc(-c4cccc(-c5cc6c(=O)n(CCN[C@H]7C[C@H](O)C7)c(C)cn6n5)c4Cl)c3Cl)cc2c(=O)n1CCN[C@H]1C[C@H](O)C1` [Compound 90, 2,2′-(2,2′-dichloro-[1,1′-biphenyl]-3,3′-diyl)bis(5-(2-(((1r,3r)-3-hydroxycyclobutyl)amino)ethyl)-6-methylpyrazolo[1,5-a]pyrazin-4(5H)-one)], the 50% inhibitory concentration (IC50) on PD-1/PD-L1 is < 10 nM. In addition, the EC50 in assay [1] was < 50 nM.

Consider `Cc1cn2nc(-c3cccc(-c4cccc(-c5cc6c(=O)n(CCN[C@H]7C[C@@H](O)C7)c(C)cn6n5)c4Cl)c3Cl)cc2c(=O)n1CCN[C@H]1C[C@@H](O)C1` [Compound 91, 2,2′-(2,2′-dichloro-[1,1′-biphenyl]-3,3′-diyl)bis(5-(2-(((1s,3s)-3-hydroxycyclobutyl)amino)ethyl)-6-methylpyrazolo[1,5-a]pyrazin-4(5H)-one)], for which, at PD-1/PD-L1, the IC50 is < 10 nM. For the same molecule, the EC50 in assay [1] is < 50 nM.

Regarding `Cc1cn2nc(-c3cccc(-c4cccc(-c5cc6c(=O)n(CCN[C@@](C)(CO)C(=O)O)c(C)cn6n5)c4Cl)c3Cl)cc2c(=O)n1CCN[C@@](C)(CO)C(=O)O` [Compound 95, (2S,2'S)-2,2′-((((2,2′-dichloro-[1,1′-biphenyl]-3,3′-diyl)bis(6-methyl-4-oxopyrazolo[1,5-a]pyrazine-2,5(4H)-diyl))bis(ethane-2,1-diyl))bis(azanediyl))bis(3-hydroxy-2-methylpropanoic acid)], the IC50 on PD-1/PD-L1 is 10 to 100 nM. Also, in assay [1], the EC50 is ≥ 100 nM.

As to `Cc1cn2nc(-c3cccc(-c4cccc(-c5cc6c(=O)n(CCN[C@](C)(CO)C(=O)O)c(C)cn6n5)c4Cl)c3Cl)cc2c(=O)n1CCN[C@](C)(CO)C(=O)O` [Compound 96, (2R,2′R)-2,2′-((((2,2′-dichloro-[1,1′-biphenyl]-3,3′-diyl)bis(6-methyl-4-oxopyrazolo[1,5-a]pyrazine-2,5(4H)-diyl))bis(ethane-2,1-diyl))bis(azanediyl))bis(3-hydroxy-2-methylpropanoic acid)], at PD-1/PD-L1, the concentration for half-maximal inhibition (IC50) lay within 10 to 100 nM. Also, in assay [1], the EC50 is ≥ 100 nM.

Consider `Cc1cn2nc(-c3cccc(-c4cccc(-c5cc6c(=O)n(CCN[C@]7(C(=O)O)C[C@@H](O)C7)c(C)cn6n5)c4Cl)c3Cl)cc2c(=O)n1CCN[C@]1(C(=O)O)C[C@@H](O)C1` [Compound 101, (1r,1′r,3r,3′r)-1,1′-((((2,2′-dichloro-[1,1′-biphenyl]-3,3′-diyl)bis(6-methyl-4-oxopyrazolo[1,5-a]pyrazine-2,5(4H)-diyl))bis(ethane-2,1-diyl))bis(azanediyl))bis(3-hydroxycyclobutane-1-carboxylic acid)], for which the IC50 at PD-1/PD-L1 is < 10 nM. Also, the EC50 in assay [1] was < 50 nM.

As a reminder, the IC50 is the concentration at which inhibition is half-maximal. A low value points to inhibition by little substance. What is called EC50 is the concentration that produces a half-maximal response.
